# Assay results: US20090191160A1, “Methods of producing pluripotent stem-like cells” (University of Dayton, priority 2007, published 2009)
# Experiments:
# Assay type in all cases: cell-based, mouse
# embryonic bodies = test: In vitro differentiation of embryoid bodies from SR-iPS cells; details: 2 μM trans-retinoic acid, 10 days, gelatin coated plates
# Description: One of the most important characteristics of stem-like cells is pluripotency. To investigate the SR-iPS stem cells have the multilineage differention potential as embryonic stem cells in vitro, different passage of iPS cells were used to form embryo bodis (EBs) one week's culture without passing in SR medium without Lif. The EBs continues to differentiate on gelatin coated plates and induced by 2 μM trans-retinoic acid for an additional 10 days. Expression of endoderm-, mesoderm-, and ectoderm-specific markers was examined by using antibodies raised against α-fetoprotein, smooth muscle actin, and β-tubulin III, respectively (21). For more specific cell lineage such as cardiomyocyte and smooth muscle cells differentiation, EBs were transferred to collagen-coated plate which contained α-MEM (cardiac differentiation medium) supplemented with 10 ng/ml platelet-derived growth factor-BB (PDGF-BB). Vascular endothelial growth medium supplemented with 50 ng/ml vascular endothelial growth factor (VEGF) was used for the smooth muscle growth differentiation. Two weeks after culturing the EBs in these medium, the cell morphology were examined by Immunofluorescent Staining with Troponin C and smooth muscle actin antibodies.
# ES-like cells = test: Maintenance of ES-like cells in SR-containing medium with growth factors; details: bFGF 4 ng/ml and Lif added together to SR-containing medium
# Description: (§1) Mouse embryonic skin fibroblast cells (MEFs) derived form 13.5 day mouse embryos and adult mouse primary dermal fibroblasts derived from adult mouse skin were cultured in DMEM Dulbecco's modified Eagle's medium (DMEM) with 10% Fetal Bovine Serum (FBS) at 37° C., 10% CO2. After the cells were grown to confluence, the cells were trypsinized, then suspended in SR-containing medium or basic medium without serum. About 10^5 mouse skin fibroblast cells were transferred to 3 ml SR-containing medium in a 6 well plate. SR-containing medium contained basic medium that included DMEM/F12 (Invitrogen 11330-032), 1× non-Essential Amino Acids (Invitrogen 11140-050), 1× L-Glutamine (Invitrogen 25030-018), […] β-mercaptoethanol and 20% Knockout Serum Replacer (Invitrogen 10828-028). 4 ng/mL bFGF (R&D System Cat# 233-FB) and Leukemia inhibitory factor Lif (ESGRO®, Chemicon ESG1107) were added to the SR-containing medium to prevent stem-like cells from differentiating.
# To investigate the possibility that serum replacement (SR)-containing medium can promote the reprogramming and dedifferentiation of skin fibroblast cells into pluripotent stem-like cells, mouse skin fibroblast cells were cultured in fibroblast growth medium, and were then transferred by trypsinization to plates holding SR-containing medium. […]
# Ca^2+ influx = test: Ca2+ signalling in fibroblast cells after transfer into SR-containing medium; details: after transfer of fibroblast cells
# Text: (§2) (Up-regulation of FGFR3 had been previously shown to play an important role in the reprogramming of primordial germ cells into stem-like cells (Skottman et al. Stem Cell 24:151-167).)
# [1] = test system: fibroblast growth factor receptor 3 (FGFR3); test: Western blotting for FGF Receptor-3 protein in fibroblast cells; details: Western blot; for FGFR3 expression: Thapsigargin 1 ug/ml, 24 hour timepoint
# Text: […] […] All Images were acquired in the inverted microscope (Nikon TS100) at 10× magnification using the MetaMorph Imaging Software, and the scale bar is 100 μm.
# as §2
# In view of the observed involvement of the FGF signaling pathway, it was then examined whether Ca^2+ might be an important secondary messenger responsible for regulating the reprogramming of fibroblast cells induced by SR containing medium activation of the FGF signaling pathway. Thapsigargin, a tight-binding inhibitor for sarco/endoplasmic reticulum Ca^2+ ATPase, was added to the SR-containing medium at a concentration of 1 μg/ml (Durcova-Hills et al. Stem Cell 24:1441).
# Oct4 promoter = test: Methylation status of the Oct4 promoter in fibroblast cells; details: before and after contact with SR medium
# skin fibroblast cells = test: Conversion (dedifferentiation) of skin fibroblast cells into stem cell-like cells, phase contrast morphology; details: for reprogramming / dedifferentiation of skin fibroblast cells into stem cell-like cells: basic medium with SR or lipid-rich BSA versus basic medium only; for conversion of skin fibroblast cells into stem cell-like cells: Thapsigargin 1 μg/ml added to SR-containing medium
# Description: as §1
# Conversion of fibroblast cells to induced pluripotent stem-like cells can be achieved by culturing a mouse embryonic skin fibroblast (MEF), mouse adult skin fibroblast (MAF) or human skin fibroblast cell in DMEM media having 10% fetal bovine serum (FBS) until the cells are confluent. Serum-replacement (SR)-containing media and 0.25% trypsin/EDTA are then warmed (e.g., at 37° C. in a water bath). Media is aspirated from the fibroblast cell culture plate, cells are washed with 1×PBS, and trypsinized via addition of 2 mls of trypsin/EDTA for one minute, followed by removal of all the trypsin solution. 2 mls of the SR human ES medium or DMEM/F12 medium is then added to the cells (without FBS), and cells are resuspended in the medium using a 5 ml pipet, pipeting up and down until no large clumps remain. About 10^5 cells/well are then added to a six well plate, with each well containing 3 mls of SR human ES medium. The cells are then mixed in this media. Cells are then placed in a warm incubator (e.g., 37° C. at 5% or 10% CO2). The cells are passaged every 3 days for a total of five or more passages. Ingredients of SR human stem cell culture medium are: 400 ml DMEM/F12 (Invitrogen 11330-032), 5 ml non-Essential Amino Acids (Invitrogen 11140-050), 2.5 ml L-Glutamine (Invitrogen 25030-018), […] β-mercaptoethanol (Sigma 7522, add 3.5 ul) and 100 ml Knockout Serum Replacer (Invitrogen 10828-028). Optionally, 4 ng/mL bFGF (R&D System Cat# 233-FB) is present. To make FGF stock, 1 ml of DMEM/F12 was added to dissolve 1 vial of 10 ug of FGF, with this solution aliquotted into five vials, then stored at −20° C. bFGF needed to be added freshly to the medium every time the method was performed. Lif was also needed for mouse cell cultures. Formulation of the SR component of serum-free medium also contained AgNO3 and other trace elements. For AgNO3-containing media, 1000× AgNO3 was added to the medium to a final concentration of 0.0001 mg/L.
# To investigate the possibility that serum replacement (SR)-containing medium can promote the reprogramming and dedifferentiation of skin fibroblast cells into pluripotent stem-like cells, mouse skin fibroblast cells were cultured in fibroblast growth medium, and were then transferred by trypsinization to plates holding SR-containing medium. […] Twenty-four hours post-transfer, a majority of cells became small, round, bright-edged granulated cells (FIG. 1a). […]
molecule,measurement,setting,value
"CC1=C(/C=C/C(C)=C/C=C/C(C)=C/C(=O)O)C(C)(C)CCC1 [retinonic acid, trans-retinoic acid]","differentiation into three germ layers (AFP, SM-Actin, β-tubulin III staining)",embryonic bodies,differentiation of the embryonic bodies into three germ layers
bFGF: basic fibroblast growth factor (R&D System Cat# 233-FB),division and differentiation of ES-like cells,ES-like cells,"promote division of the ES-like cells, while preventing differentiation of these cells"
lipid-rich BSA: AlbuMAX I is the high-lipid BSA (Invitrogen),Ca^2+ influx / signalling,Ca^2+ influx,induced
same,FGFR3 expression after transfer into medium,"[1]; 2, 4, 8, 12 hours after transfer",induced
same,methylation status of the Oct4 promoter,Oct4 promoter,induced
same,reprogramming / dedifferentiation of skin fibroblast cells into stem cell-like cells,skin fibroblast cells,promoted the dedifferentiation of skin fibroblast cells into stem cell-like cells
same,reprogramming / dedifferentiation of skin fibroblast cells into stem cell-like cells,skin fibroblast cells; listed as high-lipid BSA,required to create stem-like cells
"C/C=C(/C)C(=O)O[C@H]1C(C)=C2[C@H]([C@@H]1OC(=O)CCCCCCC)[C@@](C)(OC(C)=O)C[C@H](OC(=O)CCC)[C@@]1(O)[C@H]2OC(=O)[C@@]1(C)O [Thapsigargin, reference compound]",FGFR3 expression,[1],down-regulated FGF receptor 3 (FGFR3) expression
same,FGFR3 expression,[1]; listed as thapsigargin,prevented
same,conversion of skin fibroblast cells into stem cell-like cells,skin fibroblast cells,prevented conversion of the fibroblast cells into stem-like cells
same,conversion of skin fibroblast cells into stem cell-like cells,skin fibroblast cells; listed as thapsigargin,prevented
CCCCC/C=C\C/C=C\C/C=C\C/C=C\CCCC(=O)O [acarchodonic acid],reprogramming / dedifferentiation of skin fibroblast cells into stem cell-like cells,skin fibroblast cells,required to create stem-like cells
